Reference: patent US20240008971A1, “Ophthalmic Implant” (Nacuity Pharmaceuticals, Inc., priority 2022, published 2024)
“Also recorded” adds a separate entry of the source.

Legend:
[1] = oral dose of 600 mg in humans; cited from earlier work
[2] = test system: rd10 mice; settings: cited from earlier work
[3] = test system: H2O2-induced cataract in isolated porcine lens; assay: H2O2-induced cataract in isolated porcine lens; type: cell-based, pigs; settings: for H2O2-induced cataract: 24 hours pre-incubation, then H2O2 plus GO 6 hours
Method: Method: Lenses were harvested from fresh eyes from pigs. These lenses were first incubated in 4-5 mL TC-199 medium and 1% pig serum in a 12-well plate for two hours. At the end of the incubation, lenses were imaged under darkfield microscopy and only clear, transparent lenses were used for further experimentation. Lens were pre-incubated with NAC, NACA, diNACA for 24 hours. After the pretreatment, the lenses were transferred to media containing hydrogen peroxide (H2O2) plus GO for maintaining a constant H2O2 level during incubation similarly to a published method (Wang et al., 1997). At the end of the 6-hour incubation, lenses were imaged under darkfield microscopy (FIG. 3).

[4] = test system: retinas of diabetic rats; settings: cited from earlier work
[5] = target: glutamate cysteine ligase (GCL, EC 6.3.2.2); settings: read-out: Ki (nonallosteric competitive inhibition of GCL); cited from earlier work
[6] = test system: isolated rat lens; assay: Effect of NACA or diNACA alone on rat lens transparency; type: cell-based, Wistar rats; settings: 10 mM, no oxidative agent
Method: (§1) Lenses were extracted from 3-week-old male or female Wistar rats using an existing Animal Ethics Approval for tissue collection. Rats were euthanized using CO2, eyes were enucleated and lenses dissected from the globe and incubated in either Dulbecco's modified eagle's medium (low glucose; DMEM; Savion et al., 2019) or Media 199, no phenol red with Glutamine, with 1% penicillin, streptomycin, neomycin mixture for 6 hours, under normoxic conditions with 5% CO2. At the end of the 6-hour incubation, lenses were imaged under darkfield and brightfield microscopy and only clear, transparent lenses were used for further experimentation.
(§2) Control group: Lenses were incubated for a further 18 hours at which time, darkfield and brightfield images were taken. Lenses were placed in fresh media and then incubated for another 24 hours in DMEM or M199 with 1% PSN. Images were then taken to assess lens transparency.
(§3) 10 mM diNACA pre-treatment group: After the initial 6-hour incubation, clear lenses were cultured in 10 mM diNACA (NPI-002) for 18 hours. Images were taken, and then lenses were placed in fresh media containing 1 μg/mL of glucose oxidase (GO). Lenses were then incubated for a further 24 hours, after which images were taken to assess lens transparency
(§4) 10 mM NACA pre-treatment group: After the initial 6-hour incubation, clear lenses were cultured in 10 mM NACA (NPI-001) for 18 hours. Images were taken, and then lenses placed in fresh media containing 1 μg/mL of GO. Lenses were then incubated for a further 24 hours, after which images were taken to assess lens transparency

[7] = test system: GO-induced cataract in isolated rat lens; assay: GO-induced cataract in isolated rat lens; type: cell-based, Wistar rats; settings: for lens opacities after GO-cataract induction: 10 mM pre-treatment 18 hours, then 1 μg/mL GO 24 hours, vs GO-cataract induction alone; for visibility of underlying grid after GO-cataract induction: 10 mM pre-treatment, then GO, vs GO group
Method: as §1, §2, §3, §4
Method: Isolated rat lenses were pre-treated with NACA or diNACA followed by GO.

[8] = Repeated dose topical ocular administration in rabbit: NACA in aqueous humor (LC-MS); type: in vivo, Dutch Belted rabbits
Method: A study was conducted to evaluate effects of diNACA or NACA topical ocular dosing in rabbit. Ophthalmic formulations were developed containing either 1% diNACA or 1% NACA that were used for repeated topical ocular instillation to Dutch Belted rabbits. Three animals per group were dosed four times a day at approximately 8:00 AM, 11:00 AM, 2:00 PM, and 4:00 PM on Days 1-6, and once on Day 7 at approximately 8:00 AM, via bilateral topical administration with each test article. Ocular tolerability was assessed at baseline and prior to the first daily dose by means of scoring chemosis, discharge, and hyperemia (Draize scoring). Ocular tissue was harvested at necropsy (Day 7). A qualified analytical LC-MS method was developed and used to quantitate NACA levels in aqueous humor (AH).

[9] = test system: rabbit; assay: NPI-002 IVT implant single dose 3-week safety study in rabbit; type: in vivo, New Zealand White rabbits; settings: resolved by Day 23, associated with 22-gauge needle injection procedure
Method: A study was conducted to evaluate intravitreal injection of di-NACA as suspension or implant and NACA solution in rabbit. The objectives were to assess safety and whether the implant could deliver diNACA, NACA, and NAC to ocular tissues. A sterile intravitreal implant containing diNACA was prepared (Formulation 1896-08, a fast-releasing implant; FIG. 7). Female New Zealand White rabbits were administered two NPI-002 IVT implants per eye (total dose of NPI-002, 0.8 mg/eye). One group of animals received IVT placebo implants without any test article.
Prior to placement on study, an ophthalmic examination was conducted on each rabbit including slit-lamp biomicroscopy and indirect ophthalmoscopy. Ocular findings were scored according to a modified McDonald-Shadduck Scoring.
Clinical ophthalmic examinations were performed at baseline and on Days 8 and 23 post-dose. General health observations were performed daily. Body weights were recorded at baseline and prior to termination.
Sterile NPI-002 or placebo IVT implants were provided pre-loaded in 22 G beveled needle with wire plunger (1 implant/needle) and injected into VH. NPI-002 suspension and NPI-001 solution were prepared in sterile phosphate buffer and injected into VH.
Animals were euthanized on Day 8, 15, or 23, and ocular tissue was collected and […]

## CC(=O)N[C@@H](CS)C(=O)O [NAC, N-acetylcysteine]
[1]
  time after administration at which no NAC is detectable: 10 to 12 h
[2]; rd10 mice, NAC in drinking water, vs untreated
  oxidative damage, cone survival and function: dose-dependent, statistically significant reduction in oxidative damage and improvements in cone survival and function
[3]
  H2O2-induced cataract: dose-dependently prevented H2O2-induced cataract
[4]; 3 and 5 months
  retinal pathological changes (retinopathy): alleviated the pathological changes
[4]; most significantly at 5 months
  reactive oxygen species contents in the retinas: decreased reactive oxygen species
[4]; returned to basal levels after 5-month treatment
  VEGF and ICAM-1 expression in retinal blood vessels: up-regulation was attenuated

## N[C@@H](CCC(=O)N[C@@H](CS)C(=O)NCC(=O)O)C(=O)O [GSH, c-L-glutamyl-L-cysteinyl-glycine]
[5]
  Ki: 2.3 mM

## N-acetylcysteine amide [NACA]
[2]; mouse model of RP
  visual parameters: improve, to a greater extent than NAC, visual parameters
[2]; rd10 mice, 7-fold lower dose than NAC
  preservation of cone function and survival compared to NAC: greater preservation of cone function and survival
[6]
  lens transparency after compound alone: developed a subtle thin rim opacity on the edge; also recorded: slight ring opacity developed
[7]
  lens opacities after GO-cataract induction: reduced opacities compared to cataract induction alone
  visibility of underlying grid after GO-cataract induction: more clearly visible
[3]
  H2O2-induced cataract: dose-dependently prevented H2O2-induced cataract

## CC(=O)N[C@@H](CSSC[C@H](NC(C)=O)C(N)=O)C(N)=O [diNACA, (2R,2R′)-3,3′-disulfanediyl bis(2-acetamidopropanamide)]
[8]
  ocular penetration following topical ocular dosing: penetrates the eye
[6]
  lens transparency after compound alone: remained absolutely clear and transparent; also recorded: tolerated exposure to diNACA better than NACA
[6]; listed as NPI-002
  lens transparency after compound alone: maintained lens transparency slightly better than NPI-001 (NACA) alone
[7]
  lens opacities after GO-cataract induction: reduced lens opacities
  visibility of underlying grid after GO-cataract induction: improved grid visibility
[7]; listed as NPI-002
  lens opacities after GO-cataract induction: prevented oxidative-induced cataract
[3]
  H2O2-induced cataract: dose-dependently prevented H2O2-induced cataract
[3]; listed as NPI-002
  H2O2-induced cataract: prevented oxidative-induced cataract
[3]; H2O2-induced cataract
  protective effects on the lens as compared with NAC, NACA: better protective effects on the lens
[9]
  clinical ophthalmic examination findings on Day 8: Mild to moderate conjunctival congestion, swelling and discharge
